System: children diagnosed with ADHD
Test: SSVEP phase/latency change during the Continuous Performance Task (CPT A-X) before and one hour after stimulant medication
Assay type: in vivo, human
Settings: one hour after medication vs before
Description: An example of the invention will now be briefly described with reference to FIGS. 15 and 16. The method was used on patients who are children diagnosed with Attention Deficit […] Disorder (ADHD).
Children diagnosed with ADHD were tested to examine the effects of stimulant medication (methylphenidate or Ritalin) on the amplitude and phase of the steady state visually evoked potential (SSVEP). The children performed two cognitive tasks before the stimulant medication was administered and then repeat the tasks one hour after stimulant medication was administered.
The first task was a low demand vigilance task where the patients were required to press a micro switch on the predictable appearance of the number “5” in the repeated sequence “1, 2, 3, 4, 5”. The second task was known as the A-X version of the Continuous Performance Task (CPT A-X). In this more demanding task, patients were required to press a micro switch on the appearance of the letter “X” if and only if it has been preceded by the letter “A”.
FIGS. 15 and 16 illustrate the spatial distribution of the difference between the mean SSVEP phase, evaluated over the entire CPT A-X task before medication, and the point in time corresponding to the disappearance of the letter “A” in the CPT A-X task after medication.

Q: With `COC(=O)C(c1ccccc1)C1CCCCN1` (centres unmarked) [methylphenidate] as the compound, how does the “change in SSVEP phase (latency) at prefrontal sites” value (FIG. 15, child diagnosed with ADHD and responding to the stimulant medication) read?
A: large SSVEP latency reduction at prefrontal sites

Q: And the “change in SSVEP phase (latency) at prefrontal sites” value (FIG. 16, different child diagnosed with ADHD and not responding to stimulant medication)?
A: absence of SSVEP latency reduction at prefrontal sites
